PMC5365251, “Biophysical assay for tethered signaling reactions reveals tether-controlled activity for the phosphatase SHP-1” (Science Advances, 2017)

Assays:
PEG28-ITIM [1] = assay: SPR of SHP-1 injected over immobilised PEG28-ITIM: tethered/solution catalysis and reach (MPDPDE fit); type: biochemical, mouse
Procedure: A construct expressing murine SHP-1 with an N-terminal 6× His tag was provided by M. H. Brown. Mutation of the SH2 domains was performed using a quick-change strategy. The mutations introduced were R30K and R33E for the N-terminal SH2 domain mutant and R136K for the C-terminal SH2 domain mutant previously shown to result in loss of binding ([6]). All peptides were ordered from PeptideSynthetics and were certified to be >95% pure. Peptides sequences were derived from the membrane-proximal ITIM sequence of mouse LAIR-1 receptor.
Experiments were performed on a Biacore 3000 instrument (GE Healthcare Life Sciences). All experiments were performed at 10°C and with a buffer flow rate of 10 μl/min. The buffer used was Hepes-buffered saline (HBS-EP; GE Healthcare Life Sciences), which contained 10 mM Hepes (pH 7.4), 150 mM NaCl, 3 mM EDTA, and 0.005% Surfactant P20.
A CM5 sensorchip was coupled with streptavidin to near saturation (typically between 4000 and 7000 RU) using the amine coupling kit (GE Healthcare Life Sciences) as described previously ([42]). After streptavidin was coupled, biotinylated peptides were injected to give the indicated concentrations in experimental flow cells, and excess biotin-binding sites were blocked with biotin in HBS-EP. The molar ratio of peptide to streptavidin was kept below 1:1 to ensure that peptide immobilization was random and not clustered on the tetravalent streptavidin molecules. Reference flow cells were treated with buffer and then blocked with biotin; pilot experiments using unphosphorylated control peptides in reference flow cells were indistinguishable from buffer-treated reference flow cells when injected with SHP-1. The chip surface was then conditioned with 5 × 5-min injections of HBS-EP. SHP-1 protein in HBS-EP with 1 mM dithiothreitol was then injected over reference and experimental flow cells in series for 5 min at the indicated concentrations. All SPR data were converted from the reference-subtracted data (in resonance units) to fraction bound by dividing the resonance units by the theoretical maximum resonance units expected if the experimental flow cell was saturated with bound SHP-1.
To determine the concentration of peptide in the assays, we first needed a conversion factor between the resonance units and the mass of peptide at the chip surface. We determined this conversion factor by injecting four concentrations of SHP-1 over a control flow cell on a CM5 chip and plotting the mass of SHP-1 injected against the raw resonance unit change. We repeated this on seven flow cells across four sensor chips to get an average slope of 149 ± 15 RU per g/liter (±SEM). This constant, together with the molecular weight of the peptide, was used to convert between the resonance units of peptides immobilized and the molar concentration at the chip surface. For example, 48.5 RU of PEG28-ITIM (molecular weight, 3221) was immobilized to obtain [peptide] = 97.1 μM (Fig. 2A).
From the MPDPDE model–simulated SPR traces, one would predict that the kcat*(solution) (fig. S4, G and H) and L (fig. S4F) are likely to be very sensitive to small systematic errors in the SPR trace at longer time scales. Nonspecific binding and baseline drift are two well-known sources of such systemic errors that can produce artifacts at long time scales (see fig. S6A for examples). To exclude data affected by these artifacts, we propose a simple quality control check that greatly improves the accuracy of estimating L, kcat*(tethered) , and kcat*(solution) . As a measure of the signal-to-noise ratio at long time points, we took the resonance units 20 s after the injection was completed (noise) and divided it by the resonance units 20 s before the injection finished (signal). […] Data that had evidence of significant artifact were excluded from the study based on this criterion (red data points in fig. S6B). […]

PEG28-ITIM [2] = assay: Anti-phosphotyrosine antibody injected after SHP-1 on SPR chip: surviving phosphotyrosines; type: biochemical, mouse
Procedure: To create a substrate surface for SHP-1 in SPR, we coated a surface with peptides containing an ITIM sequence, from the […] of the inhibitory receptor LAIR-1, with a 28-repeat polyethylene glycol (PEG) spacer (PEG28-ITIM; Table 1). When SHP-1 was injected over this surface, we observed a complicated curve with an initial binding phase that was quickly followed by a reduction in binding despite continuous injection of SHP-1 (Fig. 2A). To convert the arbitrary response units reported by the SPR instrument to a more meaningful unit, we normalized this curve to maximum binding, assuming a one-to-one interaction with peptide (see Materials and Methods).
Fig. 2 An SPR assay recovers five independent biophysical/biochemical constants characterizing tethered enzymatic reactions by SHP-1. (A) Representative SPR trace (black dots) for SHP-1 injected over a surface immobilized with 48.5 RU of an ITIM peptide derived from LAIR-1 on a 28-repeat PEG linker (PEG28-ITIM). A fit of the MPDPDE model (red line) provides estimates for the indicated parameters. Early time data and fit are shown on the right. S1. […] (C) Schematic of reactions taking place when SHP-1 is injected over a surface of immobilized phosphorylated peptides. […]

Which results are given for “SHP-1: murine SHP-1 tyrosine phosphatase with an N-terminal 6× His tag, expressed in E. coli”?
L (reach parameter), SH2 variants (PEG28-ITIM [1]; SHP-1 variants over PEG28-ITIM, average fit Fig. 6B: WT n = 15, N-SH2 mutant n = 3, C-SH2 mutant n = 9): 23.0 nm; share of time spent in open active conformation in solution (PEG28-ITIM [1]; assuming complete open transition on SH2 binding, kcat*(solution) = 0.05 kcat*(tethered)): 5%; k*cat (tethered) (PEG28-ITIM [1]; average of all experiments Fig. 4C, n = 15, SEM printed ± 1.3 × 10^-2, wild-type SHP-1, PEG28-ITIM, 10°C, HBS-EP pH 7.4): 0.0118 µM⁻¹ s⁻¹; L (reach parameter) (PEG28-ITIM [1]; average of all experiments Fig. 4C, n = 15, SEM ± 0.46, wild-type SHP-1, PEG28-ITIM, 10°C, HBS-EP pH 7.4): 23 nm; k*cat (solution) (PEG28-ITIM [1]; average of all experiments Fig. 4C, n = 15, SEM ± 1.15 × 10^-4, wild-type SHP-1, PEG28-ITIM, 10°C, HBS-EP pH 7.4): 0.000603 µM⁻¹ s⁻¹; increase in tethered over solution catalytic rate (allosteric activation) (PEG28-ITIM [1]; wild-type SHP-1, PEG28-ITIM, kcat*(tethered) versus kcat*(solution)): 20 fold; dephosphorylation of immobilised peptide (in words) (PEG28-ITIM [2]; anti-phosphotyrosine antibody (clone 4G10) injected after SHP-1 on SPR chip, PEG28-ITIM): near complete dephosphorylation; anti-phosphotyrosine antibody binding after SHP-1 injection (in words) (PEG28-ITIM [2]; experimental flow cell compared to buffer-injected control with equivalent peptide levels, Fig. 2B): reduced binding
